PubChem BioAssay (NCI)
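Compound exposure: 48 hours, 5 concentrations, 96-well plates. GI50 is the concentration that inhibits growth by half. TGI is the concentration that stops growth completely.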

Key:
Test in all cases: inhibition of tumour cell growth, NCI panel, 48 h
[1] = test system: K-562 leukemia
[2] = test system: HOP-92 NSCLC
[3] = test system: SW-620 colon
[4] = test system: OVCAR-5 ovarian
[5] = test system: RPMI-8226 leukemia
[6] = test system: TK-10 renal
[7] = test system: MDA-MB-435
[8] = test system: SN12C renal
[9] = test system: UACC-257 melanoma
[10] = test system: SK-MEL-28 melanoma
[11] = test system: NCI/ADR-RES ovarian
[12] = test system: NCI-H23 lung
[13] = test system: RXF 393 renal
[14] = test system: EKVX NSCLC
[15] = test system: MALME-3M melanoma
[16] = test system: OVCAR-8 ovarian
[17] = test system: PC-3 prostate
[18] = test system: IGROV1 ovarian
[19] = test system: ACHN renal
[20] = test system: COLO 205 colon
[21] = test system: SK-MEL-2 melanoma
[22] = test system: HOP-62 NSCLC
[23] = test system: CAKI-1 renal
[24] = test system: SK-OV-3 ovarian
[25] = test system: SF-539 CNS
[26] = test system: UACC-62 melanoma
[27] = test system: A549 NSCLC
[28] = test system: 786-0 renal
[29] = test system: HL-60(TB) leukemia
[30] = test system: SF-295 CNS
[31] = test system: CCRF-CEM leukemia
[32] = test system: LOX IMVI melanoma
[33] = test system: SF-268 CNS
[34] = test system: NCI-H460 lung
[35] = test system: OVCAR-4 ovarian
[36] = test system: M14 melanoma
[37] = test system: MOLT-4 leukemia
[38] = test system: HCT-116 colon
[39] = test system: SK-MEL-5 melanoma
[40] = test system: NCI-H522 lung
[41] = test system: NCI-H226 lung
[42] = test system: T-47D breast
[43] = test system: U251 CNS
[44] = test system: KM12 colon
[45] = test system: OVCAR-3 ovarian
[46] = test system: HCC-2998 colon
[47] = test system: MDA-MB-231 breast
[48] = test system: HT29 colon
[49] = test system: SR leukemia
[50] = test system: BT-549 breast
[51] = test system: SNB-75 CNS
[52] = test system: HCT-15 colon
[53] = test system: SNB-19 CNS
[54] = test system: MCF7 breast
[55] = test system: A498 renal
[56] = test system: HS 578T breast
[57] = test system: DU-145 prostate
[58] = test system: UO-31 renal

## Cc1ccc(Cl)cc1Nc1nc(C(F)(F)F)ccc1C(=O)N/N=C/c1c(Cl)cccc1Cl
[1]
  GI50: 0.734 µM
  TGI: > 32.1 µM
[2]
  GI50: 1.14 µM
  TGI: 6.92 µM
[3]
  GI50: 0.475 µM
  TGI: 12.2 µM
[4]
  GI50: 2.21 µM
  TGI: 20.4 µM
[5]
  GI50: 0.32 µM
  TGI: 1.79 µM
[6]
  GI50: 1.4 µM
  TGI: 7.39 µM
[7]
  GI50: 2.15 µM
  TGI: 11.6 µM
[8]
  GI50: 1.2 µM
  TGI: 12.2 µM
[9]
  GI50: 2.49 µM
  TGI: 7.69 µM
[10]
  GI50: 1.84 µM
  TGI: 32.1 µM
[11]
  GI50: 0.522 µM
  TGI: 6.77 µM
[12]
  GI50: 1.55 µM
  TGI: 7.39 µM
[13]
  GI50: 1.23 µM
  TGI: 3.48 µM
[14]
  GI50: 0.507 µM
  TGI: 3.71 µM
[15]
  GI50: 1.69 µM
  TGI: 5.44 µM
[16]
  GI50: 0.85 µM
  TGI: > 50.3 µM
[17]
  GI50: 0.554 µM
  TGI: > 34.3 µM
[18]
  GI50: 0.994 µM
  TGI: > 68.9 µM
[19]
  GI50: 1.08 µM
  TGI: 6.14 µM
[20]
  GI50: 0.395 µM
  TGI: 1.72 µM
[21]
  GI50: 1.94 µM
  TGI: 4.86 µM
[22]
  GI50: 0.745 µM
  TGI: 2.29 µM
[23]
  GI50: 0.495 µM
  TGI: 3.49 µM
[24]
  GI50: 0.899 µM
  TGI: 4.76 µM
[25]
  GI50: 1.62 µM
  TGI: 5.05 µM
[26]
  GI50: 0.925 µM
  TGI: 4.02 µM
[27]
  GI50: 1.5 µM
  TGI: > 100 µM
[28]
  GI50: 0.588 µM
  TGI: 1.38 µM
[29]
  GI50: 0.863 µM
  TGI: 3.36 µM
[30]
  GI50: 0.556 µM
  TGI: 3.61 µM
[31]
  GI50: 0.289 µM
  TGI: 1.56 µM
[32]
  GI50: 0.648 µM
  TGI: 5.15 µM
[33]
  GI50: 0.623 µM
  TGI: 13.4 µM
[34]
  GI50: 0.578 µM
  TGI: 4.81 µM
[35]
  GI50: 0.289 µM
[36]
  GI50: 1 µM
  TGI: 5.67 µM
[37]
  GI50: 0.596 µM
  TGI: 4.93 µM
[38]
  GI50: 0.355 µM
  TGI: 1.58 µM
[39]
  GI50: 1.52 µM
  TGI: 3.82 µM
[40]
  GI50: 1.77 µM
  TGI: 5.98 µM
[41]
  GI50: 1.1 µM
  TGI: 4.53 µM
[42]
  GI50: 0.517 µM
  TGI: 5.18 µM
[43]
  GI50: 0.471 µM
  TGI: 5.78 µM
[44]
  GI50: 0.542 µM
  TGI: 9.08 µM
[45]
  GI50: 0.285 µM
  TGI: 2.7 µM
[46]
  GI50: 1.24 µM
  TGI: 31.5 µM
[47]
  GI50: 0.524 µM
  TGI: 2.85 µM
[48]
  GI50: 0.791 µM
  TGI: > 100 µM
[49]
  GI50: 0.251 µM
  TGI: 3.88 µM
[50]
  GI50: 1.62 µM
  TGI: 7.09 µM
[51]
  GI50: 1.45 µM
  TGI: > 24.2 µM
[52]
  GI50: 0.41 µM
  TGI: 12.8 µM
[53]
  GI50: 1.75 µM
  TGI: > 52.2 µM
[54]
  GI50: 1.74 µM
  TGI: > 38.1 µM
[55]
  GI50: 0.929 µM
  TGI: 5.61 µM
[56]
  GI50: 1.04 µM
  TGI: 6.18 µM
[57]
  GI50: 1.21 µM
  TGI: > 100 µM
[58]
  GI50: 1.53 µM
  TGI: 5.13 µM
